Assay results from US20120093917A1, “METNASE AND INTNASE INHIBITORS AND THEIR USE IN TREATING CANCER” (priority 2009, published 2012).

Tests used:
cytochrome P450 enzymes = conditions: cited from earlier work
ABCB1 (MDR-1; P-gp) = ABCB1 (MDR-1; P-gp) (Homo sapiens, UniProt P08183); conditions: not told; cited from earlier work
[1] = tested on: human myeloid cell line KG-1; assay: Leukemia cell line KG-1 growth curve, alone or with VP-16; assay type: cell-based; conditions: counted daily for 4 days
Method: The human myeloid cell line KG-1 was grown in RPMI1640 with 10% FBS. The small cell lung cancer cell line CRL5898 was grown in HITES medium (Dulbecco's medium: Ham's F12, 50:50 mix, Insulin 0.005 mg/ml Transferrin 0.01 mg/ml Sodium selenite 30 nM Hydrocortisone 10 nM beta-estradiol 10 nM HEPES 10 mM L-glutamine 2 mM (in addition to that in the base medium)). Both cell lines were seeded at 10,000 cells/ml in the appropriate medium in 6 well plates. The Chem Div compounds were resuspended as 5 mM stock solutions in DMSO. The Chem Div compounds were added alone at 2 uM and 5 uM or in combination with VP-16 (also called etoposide) at 0.05 uM. DMSO was added to the control wells. Cells were plated and treated in triplicate and counted daily for 4 days.

[2] = target: 166 enzymes, transporters and receptors; conditions: read-out: IC50 in screening panel, all assays; cited from earlier work
[3] = tested on: human Pancreatic cancer cell line BXPC3; assay: Colony formation assay, pancreatic cancer cell line BXPC3; assay type: cell-based; conditions: BXPC3, FIG. 16
Method: The human Pancreatic cancer cell line BXPC3 was plated (4000 cells per plate with a ˜10% plating efficiency) in 10 cm dishes, using 10 ml of RPMI media (always with 10% FBS) per plate, and placed in a […] incubator (5% CO2) for 24 hrs. After 24 hrs, each plate was treated with one or a combination of the following agents: DMSO (0.2% in solution), 0.3 μg/ml of gemcitabine (dissolved in 1×PBS), and/or 2 μM of each Metnase/Intnase inhibitor (dissolved in DMSO). When the DMSO, gemcitabine, and/or inhibitors were added, the plates were swirled several times to assure mixing. After the agents were added to the RPMI, the plates were put back into the incubators for 18 hrs. Following 18 hrs treatment, the media was removed and the cells were washed twice with 1×PBS. Ten ml of fresh RPMI with 10% FBS was added and the cells were placed back into the incubator for 14 days. After the incubation period that will allow surviving cells to form colonies, the media was discarded and surviving colonies were stained with methylene blue. Colonies, a reflection of a single surviving cell that expanded, were counted to measure survival. All experiments were run in triplicate. Experiments were normalized to either DMSO (black asterices) or gemcitabine (red asterices).

[4] = tested on: human colon cancer cell line SW48; assay: Colony formation assay, colon cancer cell line SW48; assay type: cell-based; conditions: 2 μM inhibitor, 18 hr treatment, colonies after 7-14 days, normalized to DMSO, FIG. 17
Method: The human colon cancer cell line SW48 was plated (1000 cells per plate with a ˜20% plating efficiency) in 10 cm dishes, using 10 ml of DMEM media (always with 10% FBS) per plate, and placed in a […] incubator (5% CO2) for 24 hrs. After 24 hr, each plate was treated with one or a combination of the following agents: DMSO (0.2% in solution), 3 μM 5-fluorouracil (5FU, dissolved in 1×PBS), and/or 2 μM of each Metnase/intnase inhibitor (dissolved in DMSO). When the DMSO, 5FU, and/or inhibitors were added, the plates were swirled several times to assure mixing. After agents were added to the DMEM, the plates were put back into the incubators for 18 hr. Following 18 hr treatment, the media was removed and the cells were washed twice with 1×PBS. Ten milliliters of fresh DMEM was added and the cells were placed back into the incubator for 7-14 days. After the incubation period that will allow surviving cells to grow and form colonies, media was discarded and surviving colonies were stained with methylene blue. Colonies, a reflection of a single surviving cell that expanded, were counted to measure survival. All experiments were run in triplicate. Experiments were normalized to either DMSO (black asterices) or 5FU (red asterices).

human DNA polymerases = conditions: cited from earlier work
[5] = in vivo; cited from earlier work

ABCB1 (MDR-1; P-gp), sequence (P08183 whole entry, species assumed): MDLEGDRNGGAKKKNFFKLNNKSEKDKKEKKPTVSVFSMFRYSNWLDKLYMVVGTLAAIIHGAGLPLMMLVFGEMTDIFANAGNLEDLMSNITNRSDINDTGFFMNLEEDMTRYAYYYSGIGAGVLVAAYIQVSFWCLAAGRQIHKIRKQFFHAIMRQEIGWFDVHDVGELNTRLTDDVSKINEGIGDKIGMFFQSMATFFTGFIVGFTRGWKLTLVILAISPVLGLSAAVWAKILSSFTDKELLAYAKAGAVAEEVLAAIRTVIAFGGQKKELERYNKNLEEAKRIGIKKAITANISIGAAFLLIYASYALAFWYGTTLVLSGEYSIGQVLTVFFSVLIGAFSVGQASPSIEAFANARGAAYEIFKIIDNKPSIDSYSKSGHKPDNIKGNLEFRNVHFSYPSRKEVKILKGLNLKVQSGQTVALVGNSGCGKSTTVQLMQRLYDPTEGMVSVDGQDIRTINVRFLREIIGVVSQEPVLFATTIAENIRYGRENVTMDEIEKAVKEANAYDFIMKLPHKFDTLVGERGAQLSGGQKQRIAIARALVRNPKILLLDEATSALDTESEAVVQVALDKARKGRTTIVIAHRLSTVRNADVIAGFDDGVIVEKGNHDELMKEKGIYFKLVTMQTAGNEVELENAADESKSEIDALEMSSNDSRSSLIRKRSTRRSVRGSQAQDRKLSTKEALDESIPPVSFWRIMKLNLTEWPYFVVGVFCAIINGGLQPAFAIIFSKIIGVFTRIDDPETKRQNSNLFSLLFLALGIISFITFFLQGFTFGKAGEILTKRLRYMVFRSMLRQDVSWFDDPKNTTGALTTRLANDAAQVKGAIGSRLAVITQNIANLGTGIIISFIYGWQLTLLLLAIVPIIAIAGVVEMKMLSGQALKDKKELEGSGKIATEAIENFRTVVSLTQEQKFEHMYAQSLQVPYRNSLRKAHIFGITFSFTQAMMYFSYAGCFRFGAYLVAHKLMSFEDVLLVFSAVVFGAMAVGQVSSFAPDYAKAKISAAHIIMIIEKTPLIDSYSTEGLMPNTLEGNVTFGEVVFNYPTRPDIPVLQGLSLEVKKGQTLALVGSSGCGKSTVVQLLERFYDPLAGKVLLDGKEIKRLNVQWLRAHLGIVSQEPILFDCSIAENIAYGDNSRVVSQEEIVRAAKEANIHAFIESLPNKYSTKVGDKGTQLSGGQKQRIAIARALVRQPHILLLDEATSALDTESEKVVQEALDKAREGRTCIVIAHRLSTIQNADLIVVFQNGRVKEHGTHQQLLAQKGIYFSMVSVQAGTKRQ

For `Cc1nnc(C(=O)NC(C)(C)C2=N/C(=C(\O)NCc3ccc(F)cc3)C(=O)C(=O)N2C)o1` [Raltegravir, N-[2-[(4Z)-4-[[(4-fluorophenyl)methylamino]-hydroxymethylidene]-1-methyl-5,6-dioxopyrimidin-2-yl]propan-2-yl]-5-methyl-1,3,4-oxadiazole-2-carboxamide], the “substrate, inducer or inhibitor of cytochrome P450 enzymes” value (cytochrome P450 enzymes) is given as “not a substrate, nor an inducer or inhibitor”, the “inhibitor of ABCB1 (MDR-1; P-gp)” value (ABCB1 (MDR-1; P-gp)) is given as “not an inhibitor” and the “effect of compound alone on KG-1 growth, lower/low dose” value ([1]; lower (low) dose of compound (added at 2 uM and 5 uM)) is given as “little effect on leukemia cell growth”. The “potentiation of low dose VP-16 on KG-1 growth, lower/low dose of compound” value ([1]; lower (low) dose of compound + VP-16 0.05 uM) was “potentiated the anti-proliferative effect of low dose VP-16”, the IC50 [2] was > 10 µM and the “potentiation of gemcitabine (surviving colonies)” value ([3]; 2 μM inhibitor + 0.3 μg/ml gemcitabine, 18 hrs, normalized to gemcitabine) was “potentiate gemcitabine”. For the same molecule, the “activity on their own against the pancreatic cancer cells (surviving colonies)” value ([3]; 2 μM inhibitor, 18 hrs treatment, colonies after 14 days, normalized to DMSO) was “activity on their own”, the “activity on their own against the colon cancer cells (surviving colonies)” value [4] was “activity on their own” and the “inhibition of human DNA polymerases” value (human DNA polymerases) was “does not inhibit”. For the same molecule, the Serum half-life [5] was 9 h.
